# Where “and” joins values, the source holds several entries; their conditions need not be identical. Identical values can stand only once. Like-named read-outs stand apart in the source and are kept apart here.
# Columns and labels:
# M. avium Lowell Young = experiment: In vitro MIC by standard dilution method, M. avium Lowell Young; conditions: Mycobacterium avium, read-out: MIC M. avium Lowell Young
# Procedure: (§1) The in vitro activity reported in Table 2 was conducted by standard dilution methods known to those skilled in the art. Briefly, serial two-fold dilutions of antibiotic are prepared in a diluent, and a standard volume of mycobacterial growth medium is added to drug aliquot. The medium is inoculated with a standardized mycobacterial cell suspension, and then incubated under appropriate conditions. Following incubation, the Minimal Inhibitory Concentration (MIC) is determined by visual observation. The MIC is defined as the lowest drug concentration (in µg/ml) required to inhibit mycobacterial growth.
# M. avium LPR = experiment: In vitro MIC by standard dilution method, M. avium LPR; conditions: Mycobacterium avium, read-out: MIC M. avium LPR
# Procedure: as §1
# S. aureus UC® No. 9213 = experiment: Murine Assay: in vivo antimicrobial activity, survival of infected mice; parameters: species or system Staphylococcus aureus; conditions: survival over six days; for ED50: Staphylococcus aureus, oral treatment one hour and five hours after infection, probit analysis
# Procedure: Antimicrobial activity was tested in vivo using the Murine Assay procedure. Groups of female mice (six mice of 18-20 grams each) were injected intraperitoneally with Staphylococcus aureus bacteria which were thawed just prior to use and suspended in brain heart infusion with 4% brewers yeast (Staphylococcus aureus) or brain heart infusion (Streptococcus species). Antibiotic treatment at six dose levels per drug was administered one hour and five hours after infection by either oral intubation or subcutaneous routes. Survival was observed daily for six days. ED50 values based on mortality ratios were calculated using probit analysis. The subject compounds were compared against vancomycin as a control.
# M. tuberculosis 91-2225 = experiment: In vitro MIC by standard dilution method, M. tuberculosis; assay type: cell-based; conditions: Mycobacterium tuberculosis, 912225; lowest concentration required to kill the organism or inhibit its growth in vitro; visual observation
# [1] = system: M. tuberculosis (Erdman strain); experiment: In vivo antimycobacterial activity, organ counts in infected CD-1 mice; parameters: species or system Mycobacterium tuberculosis; conditions: CD-1 mice infected intravenously with 1 x 10^7 M. tuberculosis
# Procedure: The in vivo data for Table 3 was obtained from CD-1 mice infected intravenously with 1 x 10^7 viable M. tuberculosis (Erdman strain). Twenty-four hours later drug treatment was initiated. All the drugs were given by oral gavage twice daily for four weeks. At the end of therapy, viable cell counts were determined from homogenates of spleens and lungs.
# [2] = UC9213, po, 144 h, read-out: ED50 (mg/kg) Example, PO, female mice infected intraperitoneally
# [3] = 100 mg/kg by oral gavage twice daily for four weeks
# [4] = UC9213, 144 h, female mice infected intraperitoneally, read-out: ED50 (mg/kg) Example, PO
# [5] = positive control, 25 mg/kg orally twice daily for four weeks
compound,measurement,setting,value
"CC[C@H]1OC(=O)[C@H](C)[C@@H](O[C@H]2C[C@@](C)(OC)[C@@H](O)[C@H](C)O2)[C@H](C)[C@@H](O[C@@H]2O[C@H](C)C[C@H](N(C)C)[C@H]2O)[C@](C)(O)C[C@@H](C)CN(C)[C@H](C)[C@@H](O)[C@]1(C)O [AZITHROMYCI N, azithromycin, reference compound]",MIC,M. avium Lowell Young,4 µg/mL
same,MIC,M. avium LPR,8 µg/mL
"CC(=O)NC[C@H]1CN(c2ccc(N3CCSCC3)c(F)c2)C(=O)O1 [Example 1, (S)-N-[[3-[3-fluoro-4-(4-thiomorpholinyl)phenyl]-2-Oxo-5-oxazolidinyl]methyl]acetamide]",ED50,S. aureus UC® No. 9213; [2],1.25 mg/kg
same,MIC,M. tuberculosis 91-2225,0.5 µg/mL
same,MIC,M. avium Lowell Young,1 µg/mL
same,"Log10 Colony-Forming Units of Mycobacterium tuberculosis Per Organ, Lung",[1]; [3],3.59
same,"Log10 Colony-Forming Units of Mycobacterium tuberculosis Per Organ, Spleen",[1]; [3],4.61
same,MIC,M. avium LPR,4 µg/mL
"CC(=O)NC[C@H]1CN(c2ccc(N3CCS(=O)(=O)CC3)c(F)c2)C(=O)O1 [Example 2, (S)-N-[[3-[3-fluoro-4-(1,1-dioxothiomorpholin-4-yl)phenyl]-2-oxo-5-oxazolidinyl]methyl]acetamide]",ED50,S. aureus UC® No. 9213; [2],2 mg/kg
same,MIC,M. tuberculosis 91-2225,0.5 µg/mL
same,MIC,M. avium Lowell Young,2 µg/mL
same,MIC,M. avium LPR,4 µg/mL
"CC(=O)NC[C@H]1CN(c2ccc(N3CC[S+]([O-])CC3)c(F)c2)C(=O)O1 [Example 3, (S)-N-[[3-[3-fluoro-4-(1-oxothiomorpholin-4-yl)phenyl]-2-oxo-5-oxazolidinyl]methyl]acetamide]",ED50,S. aureus UC® No. 9213; [4],3.4 mg/kg
CC(=O)NC[C@H]1CN(c2cc(F)c(N3CCOCC3)c(F)c2)C(=O)O1 [Example 4],ED50,S. aureus UC® No. 9213; [2],5.5 mg/kg
same,"Log10 Colony-Forming Units of Mycobacterium tuberculosis Per Organ, Lung",[1]; [3],5.03
same,"Log10 Colony-Forming Units of Mycobacterium tuberculosis Per Organ, Spleen",[1]; [3],5.24
CC(=O)NC[C@H]1CN(c2ccc(N3CCOCC3)c(F)c2)C(=O)O1 [Example 5],ED50,S. aureus UC® No. 9213; [4],5.6 mg/kg
O=CNC[C@H]1CN(c2ccc(N3CCOCC3)c(F)c2)C(=O)O1 [Example 8],ED50,S. aureus UC® No. 9213; [4],12.4 mg/kg
COC(=O)NC[C@H]1CN(c2ccc(N3CCOCC3)c(F)c2)C(=O)O1 [Example 9],ED50,S. aureus UC® No. 9213; [4],4.4 mg/kg
O=C(NC[C@H]1CN(c2ccc(N3CCOCC3)c(F)c2)C(=O)O1)C(Cl)Cl [Example 10],ED50,S. aureus UC® No. 9213; [4],6.8 mg/kg
"NNC(=O)c1ccncc1 [ISONIAZID, Isoniazid, reference compound]",MIC,M. tuberculosis 91-2225,≤ 0.015 µg/mL
same,"Log10 Colony-Forming Units of Mycobacterium tuberculosis Per Organ, Lung",[1]; [5],3.81
same,"Log10 Colony-Forming Units of Mycobacterium tuberculosis Per Organ, Spleen",[1]; [5],4.36
"CN[C@H](CC(C)C)C(=O)N[C@H]1C(=O)N[C@@H](CC(N)=O)C(=O)N[C@H]2C(=O)N[C@H]3C(=O)N[C@H](C(=O)N[C@H](C(=O)O)c4cc(O)cc(O)c4-c4cc3ccc4O)[C@H](O)c3ccc(c(Cl)c3)Oc3cc2cc(c3O[C@@H]2O[C@H](CO)[C@@H](O)[C@H](O)[C@H]2O[C@H]2C[C@](C)(N)[C@H](O)[C@H](C)O2)Oc2ccc(cc2Cl)[C@H]1O [Vancomycin, vancomycin, reference compound]","ED50 (mg/kg) Vancomycin, SC","S. aureus UC® No. 9213; vancomycin control run alongside the example of the same row, female mice infected intraperitoneally, subcutaneous treatment one hour and five hours after infection, 8640 min",2.0 mg/kg and 3.9 mg/kg

# From patent EP0717738B1, “SUBSTITUTED OXAZINE AND THIAZINE OXAZOLIDINONE ANTIMICROBIALS” (priority 1993, dated 1995)
